Experiments:
[1] = test system: Cavia porcellus; assay: Antiasthmatic activity in guinea pig assessed as inhibition of histamine phosphate solution-induced asthmatic reaction measured as increase in asthmogenic latency period at 0.2 mg/kg administered as intragastric (reference value: 95.50 +/- 18.98 sec); format: functional
[2] = biological target: Histamine H1 receptor (Cavia porcellus) (UniProt P31389); assay: Inhibition of histamine H1 receptor in guinea pig ileum assessed as inhibition of histamine-induced muscle spasms at 2 x 10 '-3 mg/ml after 5 mins (reference value: 0.31 %); format: tissue-based
[3] = test system: Cavia porcellus; assay: Antiasthmatic activity in guinea pig assessed as inhibition of histamine phosphate solution-induced asthmatic reaction measured as increase in asthmogenic latency period at 0.5 mg/kg administered as intragastric (reference value: 99.30 +/- 30.06 sec); format: functional

Sequence of Histamine H1 receptor (Cavia porcellus) (P31389 whole entry): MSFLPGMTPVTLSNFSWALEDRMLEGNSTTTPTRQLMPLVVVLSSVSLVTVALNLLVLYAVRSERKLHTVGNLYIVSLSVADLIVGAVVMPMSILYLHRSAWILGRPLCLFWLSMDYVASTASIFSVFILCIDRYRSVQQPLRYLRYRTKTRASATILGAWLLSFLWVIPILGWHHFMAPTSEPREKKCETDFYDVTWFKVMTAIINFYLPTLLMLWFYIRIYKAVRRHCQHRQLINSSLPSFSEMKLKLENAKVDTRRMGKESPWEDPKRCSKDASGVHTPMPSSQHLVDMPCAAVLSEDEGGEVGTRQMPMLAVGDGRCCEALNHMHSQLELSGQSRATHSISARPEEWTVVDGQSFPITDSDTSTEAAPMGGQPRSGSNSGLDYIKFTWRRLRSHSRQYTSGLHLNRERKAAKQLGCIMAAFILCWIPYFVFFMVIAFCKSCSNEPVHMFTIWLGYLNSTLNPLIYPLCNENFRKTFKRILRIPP

`C[C@H](CO)N1CCC(=C2c3ccc(Cl)cc3CCc3cccnc32)CC1` was tested, and the Time [1] was 111.1 s, the inhibition [2] was 32.4% and the Time [3] was 215.6 s.
Work on `C[C@H](c1ccccc1)N1CCC(=C2c3ccc(Cl)cc3CCc3cccnc32)CC1` yielded a Time [1] of 210.6 s, an inhibition [2] of 31.4% and a Time [3] of 309.6 s.
For `CN(C)CCC(c1ccc(Cl)cc1)c1ccccn1` (configuration not stated) [CHLORPHENIRAMINE], the Time [1] was 105.7 s, the inhibition [2] was 41.3% and the Time [3] was 214.7 s.
With `CC[C@H](CO)N1CCC(=C2c3ccc(Cl)cc3CCc3cccnc32)CC1` the Time [1] was 125.3 s, the inhibition [2] was 29.4% and the Time [3] was 229.2 s.
With `OCCCN1CCC(=C2c3ccc(Cl)cc3CCc3cccnc32)CC1` the Time [1] was 360 s, the inhibition [2] was 53.7% and the Time [3] was 360 s.
For `CC[C@@H](CO)N1CCC(=C2c3ccc(Cl)cc3CCc3cccnc32)CC1`, the Time [1] was 123.1 s, the inhibition [2] was 53.5% and the Time [3] was 216 s.
With `OCCN1CCC(=C2c3ccc(Cl)cc3CCc3cccnc32)CC1` the Time [1] was 133.3 s, the inhibition [2] was 50.6% and the Time [3] was 248.5 s.
In the case of `C[C@@H](CO)N1CCC(=C2c3ccc(Cl)cc3CCc3cccnc32)CC1`, the Time [1] is reported as 112.8 s, the inhibition [2] is reported as 49.7% and the Time [3] is reported as 209.7 s.
`C[C@@H](c1ccccc1)N1CCC(=C2c3ccc(Cl)cc3CCc3cccnc32)CC1` gave a Time [1] of 170.2 s, an inhibition [2] of 32.1% and a Time [3] of 273.2 s.

Source: ChEMBL document CHEMBL1806439, “Synthesis and antihistamine evaluations of novel loratadine analogues” (2011)
